The subject of the assay is MDA-MB-468 breast. Nature of the assay: NCI anticancer screen, dose series, 48 h.

Structures are written as SMILES. Values joined by “and” are separate entries in the source; they are usually repeats but may differ in a detail not shown here. Equal entries are not always repeated.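 Test compounds were applied to cells in 96-well plates for 48 hours at 5 doses. Abbreviation: GI50, concentration required for 50% inhibition of growth. TGI: concentration producing complete growth inhibition.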

Take `COc1cccc(-n2ncc3c(N/N=C/c4cccc(F)c4)ncnc32)c1`: the GI50 is 5.44 µM and the TGI was determined as 13.6 µM. For `CN1CCN(Cc2ccc(NC(=O)c3cncc(C#Cc4cnc5ccc(Cl)nn45)c3)cc2C(F)(F)F)CC1`, in that order: 1.11 µM and 2.58 µM. Regarding `CC(C)CNC(=O)c1ccc(NC(=O)N(CC(C)C)C(=O)c2ccc(N)c(OCCCN)c2)c(OCCCN=C(N)N)c1`, the GI50 is above 62.5 µM and the TGI was above 62.5 µM. In the case of `CCN1C2=C(SC(=S)C1=C1SC(C(=O)OC)=C(C(=O)OC)S1)SC(=Nc1ccc(OC)cc1)C2=O`, the GI50 was 1.73 µM and the TGI is 3.46 µM. Turning to `CCN1CCN(Cc2ccc(NC(=O)c3nc4ccc5[nH]ncc5c4c4c3CCCC4)cc2C(F)(F)F)CC1`, the GI50 was 0.893 µM and the TGI came to 1.79 µM. Turning to `CNC[C@@H](NC(=O)c1ccc(-c2nc([C@H]3CC[C@H](O)[C@@H](F)C3)cnc2N)cc1F)c1cc(F)cc(Br)c1`, the GI50 was 13.2 µM and the TGI came to 28.4 µM.

For `C=C(C)[C@@H]1CC[C@]2(C)[C@H](CC[C@@H]3[C@@H]([C@@](C)(O)CCC=C(C)C)CC[C@]32C)[C@@]1(C)CCC(=O)N1CCN(C)CC1`, the GI50 is 5.49 µM and the TGI turned out to be 18.5 µM. Taken in the same sequence, the figures for `Cc1cc(-c2ccc(C3C(C#N)=C(N)Oc4c3c(=O)oc3ccccc43)cc2)cnc1F` (stereo not drawn) were 17.5 µM and 82.5 µM. For `COc1cc(/C=C\c2cc(/C=C\c3ccc(O)c(OC)c3)n(C(=O)COc3ccccc3)n2)ccc1O`, in that order: 1.71 µM and 7.39 µM. Taken in the same sequence, the figures for `CC1CN=C(c2cccc(-c3ccc(-c4ccccc4)o3)c2)N1` (stereo not drawn) were 1.69 µM and 3.92 µM. In the case of `N=C(N)c1ccc(-c2ccc(-c3cccs3)o2)cc1`, the GI50 is 1.72 µM and the TGI came out at 3.4 µM. Taken in the same sequence, the figures for `COC(=O)CCC1=C(C)C(C)=N/C1=C\c1[nH]c(-c2ccc[nH]2)cc1OC` were 0.647 µM and 2.7 µM. For `COc1ccc(-c2cn(-c3cccc(C(=O)/C=C/c4cc(OC)c(OC)c(OC)c4)c3)c(=O)[nH]2)cc1`, in that order: 3.07 µM and 10.8 µM. For `C1CCC(C(CC2CCCCN2)C2CCCCC2)CC1` (stereo not drawn), in that order: 1.37 µM and 2.85 µM.

With `O=C1C=C(Nc2cccnc2)c2ccccc2C1=O`, the GI50 is 3.2 µM and the TGI is 11.1 µM. For `O=C1C=C2C(=CCOC2O)O1` (stereo not drawn), in that order: 0.425 µM and 2.76 µM. In the case of `Oc1ccc(Cl)cc1-c1cc(-c2ccc(Cl)cc2)n[nH]1`, the GI50 was 1.4 µM and the TGI was 6.44 µM. Take `COc1ccc2[nH]c(=O)c(/C=C/C(=O)c3ccccc3OC)cc2c1`: the GI50 is 0.336 µM and the TGI was 1.65 µM.

Turning to `C/C(=N\NC(=O)c1ccccc1N)c1ccccc1O`, the GI50 was 1.71 µM and the TGI came out at 13.8 µM. Regarding `CCCCCCCCCOc1c(OC)cc(C2CC(=O)Nc3c2c(C)nn3-c2nc3ccccc3[nH]2)cc1OC` (stereo not drawn), the GI50 was 0.891 µM and the TGI came out at 2.09 µM. Taken in the same sequence, the figures for `Nc1cc2ccccc2c(O)c1O` were 2.19 µM and 4.75 µM. For `C#CCN(C)CCCOc1ccc(NCc2ccc(/C=C/C(=O)NO)cc2)cc1Cl`, in that order: 0.411 µM and 3.55 µM.

In the case of `O=C(Cc1ccc(OCc2ccccc2)cc1)NCc1ccc2c(c1)OCO2`, the GI50 is 5.9 µM and the TGI is above 100 µM. On to `O=C(C1CC1)N1CC[C@@H](Cc2n[nH]c(=O)n2-c2ccc(-c3ccc4occc4c3)cc2)C1`, for which the GI50 was 20.3 µM and the TGI was 98.1 µM. Taken in the same sequence, the figures for `COc1ccc2c(c1)C(=O)c1c-2c(=O)n(CCCCCCC(=O)NO)c2ccccc12` were 0.0463 µM and 0.449 µM.

On to `Nc1c(C(=O)c2cccc(-c3ccncc3)c2)cnn1-c1ccc(F)cc1`, for which the GI50 was 4.42 µM and the TGI was above 25 µM. With `CN(C)c1ccc(N=Nc2ccc(Br)cn2)c(O)c1`, the GI50 was 0.469 µM and the TGI stood at 3.98 µM.

For `C/C(=C\C(=N\N=C(N)N)c1ccc(Cl)cc1)c1ccc(Cl)cc1`, the GI50 is 0.125 µM and the TGI was 1.46 µM.

As to `CN1C(=O)C23CC4(C56CC78SSC(CO)(C(=O)N7C5Nc5ccccc56)N(C)C8=O)c5ccccc5NC4N2C(=O)C1(CO)SS3` (stereo not drawn), the GI50 is below 0.0241 µM and the TGI turned out to be 0.0606 µM.

On to `COC(=O)[C@]12CC[C@@H](C(=O)/C=C/c3cccnc3)[C@@H]1[C@H]1CC[C@@H]3[C@@]4(C)C/C(=C/c5cccnc5)C(=O)C(C)(C)[C@@H]4CC[C@@]3(C)[C@]1(C)CC2`, for which the GI50 is 0.272 µM and the TGI is 0.712 µM.

On to `COC(=O)[C@@H](C)C[C@H](Cc1ccccc1)NC(=O)c1nc([C@@H](C[C@H](C(C)C)N(C)C(=O)[C@@H](NC(=O)[C@H]2CCCCN2C)C(C)C)OC(C)=O)sc1C(C)C`, for which the GI50 is below 0.00333 µM and the TGI worked out at 0.137 µM. Regarding `NC(=O)c1cc(Cl)ccc1NC(=O)COc1ccccc1`, the GI50 is 1.74 µM and the TGI is above 100 µM. Take `CO[C@H]1C[C@@H]2CC[C@@H](C)[C@@](O)(O2)C(=O)C(=O)N2CCCC[C@H]2C(=O)O[C@H]([C@H](C)C[C@@H]2CC[C@@H](O)[C@H](OC)C2)CC(=O)[C@H](C)C=C(C)[C@@H](O)[C@@H](OC)C(=O)[C@H](C)C[C@H](C)/C=C/C=C/C=C1C`: the GI50 is 3.64e-05 µM and 0.000315 µM; the TGI was found to be 13.4 µM. In the case of `C=C1C(=O)O[C@H]2[C@H]1CC/C(COC(=O)NCc1c[nH]c3ccc(Br)cc13)=C\CC[C@@]1(C)O[C@@H]21`, the GI50 is 0.451 µM and the TGI was 1.93 µM. For `Cc1cnc(NC2CCOCC2)nc1-n1cnc(C(=O)N[C@H](CN)c2cc(F)cc(Cl)c2)c1`, the GI50 was 2.67 µM and the TGI is 11.8 µM. For the compound `O=c1[nH]c2c3ccncc3cc(-c3cccc(Cl)c3)c2c2cnccc12`, the GI50 was above 100 µM and the TGI is above 100 µM.

Consider `NC1(c2ccc(-c3nc4ccn5c(=O)[nH]nc5c4cc3-c3ccccc3)cc2)CCC1`, for which the GI50 was 0.0169 µM and 0.0943 µM and 0.0626 µM.

On to `O=C(Nc1ccc(-n2ccc3c(NC(=O)c4ccccc4)ncnc32)cc1)c1ccc(Cl)c(C(F)(F)F)c1`, for which the GI50 is 2.86 µM and the TGI was 9.23 µM. For `CCOC(=O)C#Cc1c(C(=O)OCC)nnn1Cc1ccc(C(F)(F)F)cc1`, the GI50 is 1.88 µM and the TGI worked out at 4.05 µM.

Regarding `N=C(N)c1ccc(-c2ccc(-c3ccc(F)cc3)s2)nc1`, the GI50 is 1.63 µM and the TGI is 3.38 µM.

With `c1ccc(-c2nc([P+](c3ccccc3)(c3ccccc3)c3ccccc3)c(N3CCOCC3)o2)cc1`, the GI50 is 0.278 µM and the TGI was 1.06 µM.

`c1ccc(-c2cccc(-c3ccccn3)n2)nc1`: the GI50 was 0.284 µM and the TGI stood at 1.73 µM.

For the origin of these results see PubChem BioAssay (NCI).
